From US20130096028A1, “CELL CAPABLE OF EXPRESSING TSLP CONSTANTLY AND AT HIGH LEVEL, AND METHOD FOR SCREENING FOR TSLP MODULATOR UTILIZING THE CELL” (TOHOKU UNIVERSITY, priority 2010, published 2013)

Columns and labels:
[1] = tested on: TSLP production of KCMH-1 cell; experiment: TSLP production of KCMH-1 cells, TSLP in culture supernatant quantified by ELISA; type: cell-based, mouse; details: BAY11-7082 10 μM, 24 hours, ELISA (FIG. 5)
Method: The KCMH-1 cells were suspended at a concentration of 1×10^5 cells/ml in an MEMU medium containing 10% FBS. 0.5 ml of the cell suspension was inoculated to each well of a 24-well cluster dish. 24 hours later, the medium was removed, and the cells were washed with phosphate-buffered saline (PBS). Then, 0.5 ml of an MEMU medium containing 10% FBS and each concentration of dexamethasone (0.1 or 1 μM) or FK506 ([…]) was added to the cells. 24 hours later, the culture solution was collected, and TSLP in the supernatant was quantified by ELISA (FIG. 2).
The KCMH-1 cells were suspended at a concentration of 1×10^5 cells/ml in an MEMU medium containing 10% FBS. 0.5 ml of the cell suspension was inoculated to each well of a 24-well cluster dish. […] 24 hours later, the culture solution was collected, and TSLP in the supernatant was quantified by ELISA (FIG. 3).
The KCMH-1 cells were suspended at a concentration of 1×10^5 cells/ml in an MEMU medium containing 10% FBS. […] 24 hours later, the culture solution was collected, and TSLP in the supernatant was quantified by ELISA (FIG. 4).
The KCMH-1 cells were suspended at a concentration of 1×10^5 cells/ml in an MEMU medium containing 10% FBS. […] 24 hours later, the culture solution was collected, and TSLP in the supernatant was quantified by ELISA (FIG. 5).

human TSLP mRNA = details: human airway epithelial cell lines; cited from earlier work

SMILES | TSLP production in the KCMH-1 cells [1] | expression of human TSLP mRNA by IL-1β (human TSLP mRNA)
Cc1ccc(S(=O)(=O)/C=C/C#N)cc1 [BAY11-7082] | partially inhibited | –
CC1=C(/C=C/C(C)=C\C=C\C(C)=C\C(=O)O)C(C)(C)CCC1 [9-cis-retinoic acid] | – | inhibits
